From patent US20060106102A1, “Napththalene derivatives which inhibit the cytokine or biological activity of microphage migration inhibitory factor (mif)” (priority 2002, published 2006)
Where a name gives a salt, the structure may show the parent alone. Read-outs that look alike come from different tables or passages of the source.

Legend:
[1] = tested on: IL-1-induced COX-2 expression; assay: IL-1-induced COX-2 expression in S112 human dermal fibroblasts (MIF-dependent event), flow cytometry; assay type: cell-based; conditions: for inhibition at 1 µM: compound 1 uM
Protocol: The activity of each compound was studied in a bioassay utilising MIF-dependent activation of human dermal fibroblasts. […] IL-1-induced COX-2 expression is therefore a MIF-dependent event. […] Prior to experimentation, cells were seeded at 10^5 cells/ml in RPMI/0.1% BSA for 18 hours. […] Cells permeabilised with 0.1% saponin were sequentially labelled with a mouse anti-human COX-2 monoclonal antibody and with sheep-anti-mouse F(ab)2 fragment labelled with fluoroscein isothiocyanate. Cellular fluorescence was determined using a flow cytometer. At least 5000 events were counted for each reading, each of which was performed in duplicate, and the results expressed in mean fluorescence intensity (MFI) after subtraction of negative control-labelled cell fluorescence. The effect of each compound was determined by subtracting the IL-1+compound-treated cell MFI from the IL-1-treated cell MFI and expressed as % inhibition. In each case the % inhibition of IL-1-induced COX2 expression is shown as the mean, or mean±SEM where results are available from multiple experiments.

[2] = tested on: antigen-specific T cell activation (splenic T lymphocytes from mBSA-immunised mice); assay: antigen-specific (mBSA) activation of splenic T lymphocytes in vitro, 3H-thymidine incorporation; assay type: cell-based, C57BL6/J mice
Protocol: After a further seven (7) days mice were killed and spleens collected aseptically into Hanks buffered saline solution (HBSS). A single cell suspension was prepared in Petri dishes by flushing DMEM through the organ using a 26G needle and 2 mL syringe. The resulting cell suspension was centrifuged for 5-7 minutes and supernatant discarded. Erythrocytes were lysed using a solution containing 0.579% NH4Cl, 0.000037% EDTA, and 0.1% NaHCO3 in a 37° C. water bath. Tubes were then filled with DMEM and centrifuged for 5-7 minutes. […] The specific stimulating antigen, mBSA, was then added at 10-50 μg/mL and plates incubated for 30 hours in a 37° C., 5% CO2 incubator. Tritiated^3H-thymidine was then added at a concentration of 0.5 μCi/well for a further 18 hours. Cells were harvested on a Packard cell harvester, and the harvested material added to 750 μL/tube scintillation fluid. Scintillation counts were read on a Wallac beta-emnission counter. […] Further compounds were also tested for their ability to inhibit antigen-specific T cell activation as a marker of the inhibition of the cytokine or biological activity of MIF using this assay.

[3] = tested on: recombinant human macrophage migration inhibitory factor (MIF)-induced proliferation of S112 human dermal fibroblasts; assay: MIF-induced proliferation of S112 human dermal fibroblasts, 3H-thymidine incorporation; assay type: cell-based
Protocol: The activity of each compound was studied in a bioassay utilising MIF-induced proliferation of human dermal fibroblasts. S112 human dermal fibroblasts were propagated in RPMI/10% foetal calf serum (FCS). Prior to experimentation, cells were seeded at 10^5 cells/ml in RPMI/0.1% BSA for 18 hours. At time point zero, culture medium was replaced with RPMI/10% FCS and treatments administered. Cells were treated with recombinant human macrophage migration inhibitory factor (MIF) 50 ng/ml (1.353×10^−9 M) and/or the compound at a 1 or 1000 molar ratio to the concentration of MIF. In some experiments the compound was combined with MIF at time point −30 minutes, prior to adding at time point zero. At time point 30 hours, cells were pulsed with […]. At time point 48 hours, cells were harvested using a semi-automated cell harvester. The radioactivity incorporated into DNA was determined by liquid scintillation counting, with results expressed as [^3H] thymidine incorporation. The proliferation of untreated cells was expressed as 100% and the effect of MIF and each compound expressed in relative %.
The activity of compound 5 was studied in a bioassay utilising MIF-induced proliferation of human dermal fibroblasts. S112 human dermal fibroblasts were propagated in RPMI/10% foetal calf serum (FCS). Prior to experimentation, cells were seeded at 10^5 cells/ml in RPMII/0.1% BSA for 18 hours. At time point zero, culture medium was replaced with RPMI/10% FCS and treatments administered. Cells were treated with recombinant human macrophage migration inhibitory factor (MIF) 50 ng/ml and/or compound 5 at a 1-1000 molar ratio to the concentration of MIF. At a time point 30 hours later, cells were pulsed with 1 μCi/well of ^3H-thymidine. At a time point 48 hours after commencement of the experiment, cells were harvested using a semi-automated cell harvester. The radioactivity incorporated into DNA was determined by liquid scintillation counting, with results expressed as [^3H] thymidine incorporation.

[4] = Homo sapiens, Fibroblast, compound 50 uM, IL-1 0.1 ng/ml, 6 hours, S112 cells, read-out: % inhibition of IL-1-induced COX2 expression (Effect)
[5] = Mus musculus, T-cell, mBSA 50 μg/ml, read-out: EC50 (T cell activation suppressed by 50% compared to vehicle-only-treated cells)
[6] = Mus musculus, T-cell, mBSA 10 μg/ml, read-out: EC50 (T cell activation suppressed by 50% compared to vehicle-only-treated cells)
[7] = mBSA 10 μg/ml, read-out: EC50 (T cell activation suppressed by 50% compared to vehicle-only-treated cells)
[8] = mBSA 50 μg/ml, read-out: EC50 (T cell activation suppressed by 50% compared to vehicle-only-treated cells)
[9] = Homo sapiens, Fibroblast, IL-1 0.1 ng/ml, 6 hours, S112 cells, read-out: % inhibition of IL-1-induced COX2 expression (Effect)

| EC50 [2, 5] | EC50 [2, 6] | Compound | inhibition at 50 µM [1, 4] | further results |
| --- | --- | --- | --- | --- |
| 18 µM |  | COC(=O)c1ccc2cc(OC)cc(C)c2c1 [Compound 65, Methyl 6-methoxy-8-methyl-2-napthoate ester] | 50.4% |  |
| 0.12 µM | 10.2 µM | O=C(O)c1ccc2cc3c(cc2c1)OCCO3 [Compound 14, 2,3-dihydronaphtho[2,3-b][1,4]dioxine-7-carboxylic acid] | 24.1% |  |
| 16.7 µM | 10 µM | CCCCCOS(=O)(=O)c1ccc2cc(O)c(O)cc2c1 [Compound 10, Pentyl 6,7-dihydroxy-2-naphthalenesulfonate] | 27.7% |  |
| 8.9 µM | 2.57 µM | COc1ccc2cc(C)c(C(=O)O)cc2c1Br [Compound 40, 5-bromo-6-methoxy-2-methyl-3-naphthaoic acid] | 8.5% |  |
|  |  | CCCCCNCc1cc2ccc(O)cc2cc1C(=O)O [Compound 43, 6-hydroxy-[2-(1-pentylamino)methyl]-3-naphthoic acid] |  | % inhibition of IL-1-induced COX2 expression (Effect) ([1]; compound 50 uM, IL-1 0.1 ng/ml, 6 hours, S112 cells): 24.10%; EC50 [2, 7]: 1.85 µM; EC50 [2, 8]: 41.5 µM |
| > 100 µM | 13.1 µM | COC(=O)c1ccc2c([N+](=O)[O-])c(O)ccc2c1 [Compound 47, Methyl 6-hydroxy-5-nitro-2-naphthoate ester] |  |  |
| > 100 µM | 3.5 µM | O=C(O)CCCCCOC(=O)c1ccc2cc(O)ccc2c1 [Compound 22] | 11.6% |  |
| 28.1 µM |  | COC(=O)c1ccc2ccc(O)c([N+](=O)[O-])c2c1 [Compound 46, Methyl 7-hydroxy-8-nitro-2-naphthoate ester] | 9.3% |  |
| 0.54 µM | 12.5 µM | CCOC(=O)c1ccc2cc(SC(=O)N(C)C)ccc2c1OC [Compound 33, Ethyl-6-[(dimethylamino)carbonyl]sulfanyl-1-methoxy-2-naphthoate] | 5.3% |  |
| 0.95 µM | 10.8 µM | CCCCCCCCCCCCCCCCCCCCOC(=O)c1ccc2cc(O)ccc2c1 [Compound 19] |  | inhibition at 10 µM ([1]; Homo sapiens, Fibroblast, compound 10 uM, IL-1 0.1 ng/ml, 6 hours, S112 cells, read-out: % inhibition of IL-1-induced COX2 expression (Effect)): 7.7% |
| 89.8 µM | 49.3 µM | COc1ccc2cc(C)c(C(=O)O)cc2c1 [Compound 39, 7-methoxy-3-methyl-2-naphthoic acid: 2-amino-2-methylpropan-1-ol salt] | 13.3% |  |
| 11.9 µM | 1.01 µM | COC(=O)c1ccc2c(N)c(OC)ccc2c1 [Compound 49, Methyl 5-amino-6-methoxy-2-naphthoate ester] |  |  |
|  |  | Oc1cc2ccccc2cc1O [Compound 1, 6,7-dihydroxynaphthalene] |  | inhibition at 0.13 µM ([3]; Homo sapiens, Fibroblast, concentration 0.13 μM, rhMIF 50 ng/ml, S112 cells, read-out: % inhibition of proliferation compared to vehicle plus rhMIF-treated cells): 47% |
| 32.4 µM | 14.8 µM | COC(=O)c1ccc2ccc(O)cc2c1 [Compound 45, Methyl 7-hydroxy-2-naphanoate ester] |  |  |
| > 100 µM | 2.39 µM | O=C(O)c1ccc2c(S(=O)(=O)O)c(O)ccc2c1 [Compound 5, 2-carboxy-6-hydroxynaphthalene-5-sulfonic acid] |  | effect on MIF-induced proliferation of human dermal fibroblasts (FIGS. 1 and 2) ([3]; 1M ratio equivalent to MIF 50 ng/ml): inhibition of MIF-induced proliferation |
| 0.22 µM | 8.89 µM | COC(=O)c1cc2cc(OC)ccc2cc1O [Compound 35, methyl 2-hydroxy-6-methoxy-3-naphthoate] |  |  |
|  |  | C[C@@H]1C[C@H]2[C@@H]3CCC4=CC(=O)C=C[C@]4(C)[C@@]3(F)[C@@H](O)C[C@]2(C)[C@@]1(O)C(=O)CO [dexamethasone, reference compound] |  | % inhibition (IL-1 induced COX-2 expression) ([1]; Table 2 experiment 2: dexamethasone alone, 10^−9 M): 63.8% |
| 22.3 µM |  | COc1ccc2cc(C(CCCCCO)C(=O)O)ccc2c1 (stereo not shown) [Compound 58, 7-hydroxy-2-(6-methoxy-2-naphthyl)heptanoic acid] |  |  |
|  |  | COc1ccc2cc([C@H](C)C(=O)O)ccc2c1 [Compound 8, S-(+)-6-methoxy-α-methyl-2-naphthalene acetic acid] |  | % inhibition of proliferation compared to vehicle plus rhMIF-treated cells ([3]; concentration 0.013 μM, rhMIF 50 ng/ml, S112 cells): 4%; % inhibition of proliferation compared to vehicle plus rhMIF-treated cells ([3]; concentration 0.13 μM, rhMIF 50 ng/ml, S112 cells): 36%; EC50 [2, 7]: 57.7 µM; EC50 [2, 8]: > 100 µM |
| 1.18 µM | 6.4 µM | CCOC(=O)c1ccc2cc(O)ccc2c1O [Compound 28, Ethyl 1,6-dihydroxy-2-naphthaote] |  | inhibition at 25 µM ([1]; Homo sapiens, Fibroblast, compound 25 uM, IL-1 0.1 ng/ml, 6 hours, S112 cells, read-out: % inhibition of IL-1-induced COX2 expression (Effect)): 7.8% |
|  |  | CNc1ccc2cc(S(=O)(=O)O)ccc2c1 [Compound 11, 6-methylamino-2-naphthalene sulphonic acid, sodium salt] |  | inhibition at 25 µM ([1]; Homo sapiens, Fibroblast, 6 h, read-out: % inhibition of IL-1-induced COX2 expression (Effect)): 13.6%; EC50 ([2]; Mus musculus, T-cell, read-out: EC50 (T cell activation suppressed by 50% compared to vehicle-only-treated cells), mBSA 10 μg/ml): 0.02 µM; EC50 ([2]; Mus musculus, T-cell, read-out: EC50 (T cell activation suppressed by 50% compared to vehicle-only-treated cells), mBSA 50 μg/ml): 3.34 µM |
| > 100 µM | 12.7 µM | COC(=O)c1ccc2ccc(OC)cc2c1 [Compound 44, Methyl 7-methoxy-2-naphthoate ester] | 9.8% |  |
| 87.7 µM | 72.2 µM | O=C(O)c1ccc2cc(O)ccc2c1 [Compound 9, 6-hydroxy-2-naphthanoic acid] |  | inhibition at 1 µM [1, 9]: 7.5% |
| 21.5 µM | 51.7 µM | COC(=O)c1ccc2cc(O)ccc2c1 [Compound 15, Methlyl-6-hydroxy-2-naphthoate] |  | inhibition at 1 µM [1, 9]: 17.3% |
